The record followed here is patent US11173124B2, “Oral delivery of GLP-1 peptide analogs” (MEDIMMUNE LIMITED, priority 2017, dated 2021).

For one data set, the system named is Caco-2 cells. Description: Caco-2 study, Permeability (%) of lipidated peptides (Example 3). The data set is classed as in vitro ADME, human. Particulars: 0.1 mg/mL peptide. From the text: The Caco-2 cell line is a continuous cell line of heterogeneous human epithelial colorectal adenocarcinoma cells, which when cultured under specific conditions, become differentiated and polarized such that their phenotype, morphologically and functionally, resembles the enterocytes lining the small intestine. Caco-2 cells express tight junctions, microvilli, and a number of enzymes and transporters that are characteristic of such enterocytes. Caco-2 cells are most commonly used as a tight junction monolayer that provides a physical and biochemical barrier to the passage of drugs and thus serves as an in vitro model of the human small intestinal mucosa to predict the absorption of orally administered drugs. Caco-2 permeability assays were performed by Cyprotex US, LLC (MA, USA) to assess the efficacy of different permeation enhancers. Caco-2 cells were grown on Transwell filters until a transepithelial electric resistance of ˜1000 ohms/cm^2 was achieved. The cells were incubated for three hours with media containing test samples on the apical (top) side of the cell layer, and with blank media on the basolateral (lower) side of the cell layer. Media from the apical and basolateral sides was collected separately after three hours and evaluated for the amount of peptide present on each side. Table 2 gives the permeability coefficient (Papp) of the various test samples, which include the SEQ ID NO:3 GLP-1 peptide in the presence of different excipients.
A following Caco-2 study was performed to evaluate the permeability of different peptides in the presence of various permeation enhancers. Permeability (%) was calculated by dividing the cumulative amount of molecules transported with the original loading amount. Concentrations of peptides in starting sample and apical and basal solutions after incubation for pre-determined periods were analyzed by HPLC. Sodium chenodeoxycholate at 25 mg/mL effected the highest permeability of each tested peptide (Table 4).

The nature of data set [1]: Canine site of absorption study, IntelliCap, SEQ ID NO:5 solution formulations (Example 11). The data set is classed as in vivo, Beagle dogs. The following applies: for bioavailability / AUC(0-t) / Cmax / Tmax: dog; for bioavailability: plasma; for AUC(0-t) / Cmax / Tmax: in vivo. From the text: The IntelliCap® system, an electronic oral drug delivery and monitoring device, was used to determine regional absorption for solution formulations. In the form of a capsule, the IntelliCap® incorporates a microprocessor, battery, pH sensor, temperature sensor, radio frequency (RF) wireless transceiver, fluid pump, and drug reservoir. The IntelliCap® system can determine the drug's position in the gastrointestinal (GI) tract by a pH monitoring sensor in the capsule, thereby eliminating the need for in vivo imaging. This system was employed to assess the site of absorption of GLP-1 peptide analogs in the GI tract following oral delivery to canines (Beagle dogs). Solution formulations without permeation enhancer excipients were used as intravenous (IV) and subcutaneous (SC) controls in the study. In brief, solution formulations were prepared and transferred to the IntelliCap® capsule which was dosed to canines, wherein the formulation was released at a specific site in the GI tract.
An additional site of absorption study was performed to evaluate the best site of absorption of the SEQ ID NO:5 GLP-1 peptide analog solution formulations after oral administration of IntelliCap capsules to canines (Beagle dogs). Delivery of the SEQ ID NO:5 peptide to the proximal small bowel (after pylorus passage), distal small bowel (before ileocecal passage), and proximal colon (after ileocecal passage) were studied.

The mark [2] stands for this setting: 5.0 mg/mL Sodium Chenodeoxycholate.
The mark [3] stands for this setting: 25 mg/mL Sodium Chenodeoxycholate.
[4] abbreviates: Intravenous, 0.03 mg/kg, 0.3 mg/mL peptide in 50 mM Tris, 150 mM Mannitol, 0.02% PS80, pH 8.0.
Where [5] appears, read: IntelliCap, Distal small bowel, 0.81 mg/kg, 12 mg/mL peptide, 25 mg/mL Na CDC, 12.5 mg/mL PG, pH 8.0.
Setting [6] is: IntelliCap, Proximal colon, 0.85 mg/kg, 12 mg/mL peptide, 25 mg/mL Na CDC, 12.5 mg/mL PG, pH 8.0.
The mark [7] stands for this setting: IntelliCap, Proximal small bowel, 0.86 mg/kg, 12 mg/mL peptide, 25 mg/mL Na CDC, 12.5 mg/mL PG, pH 8.0.
[8] abbreviates: sc, Subcutaneous, 0.03 mg/kg, 0.3 mg/mL peptide in 50 mM Tris, 150 mM Mannitol, 0.02% PS80, pH 8.0.

Starred links: 1 amine or outer side, 2 acyl side, 3 side chain; linkers in the order of their positions; H or OH if unused. Non-standard residues stand in square brackets, D forms with d. Residues, ends and D or L forms follow the SMILES beside them. Groups on a side chain read outwards from the residue. Primed or numbered codes have the meaning given here. ξ: configuration not given here. *: point of attachment. γGlu = O=C(O)[C@H](CCC(=O)[*:2])N[*:1]; αMeF = C[C@](N)(Cc1ccccc1)C(=O)O; ξαMeF = CC(N)(Cc1ccccc1)C(=O)O; αMeK = C[C@](N)(CCCCN)C(=O)O; Lauroyl = CCCCCCCCCCCC(=O)*; ξαMeK = CC(N)(CCCCN)C(=O)O; PEG2′ = not defined here; ξαMeS = CC(N)(CO)C(=O)O; AEEA = NCCOCCOCC(=O)O; Aib = CC(C)(N)C(=O)O

Regarding `CC[C@H](C)[C@H](NC(=O)[C@H](Cc1ccccc1)NC(=O)[C@H](CCC(=O)O)NC(=O)[C@H](CCCCNC(=O)COCCOCCNC(=O)COCCOCCNC(=O)CC[C@H](NC(=O)CCCCCCCCCCCCCCCCC(=O)O)C(=O)O)NC(=O)[C@H](C)NC(=O)[C@H](C)NC(=O)[C@H](CCC(=O)O)NC(=O)CNC(=O)[C@H](CCC(=O)O)NC(=O)[C@H](CC(C)C)NC(=O)C(C)(Cc1ccccc1)NC(=O)[C@H](CO)NC(=O)C(C)(CO)NC(=O)[C@@H](NC(=O)[C@H](CC(=O)O)NC(=O)[C@H](CO)NC(=O)[C@@H](NC(=O)C(C)(Cc1ccccc1)NC(=O)[C@H](CO)NC(=O)CNC(=O)[C@H](CCC(=O)O)NC(=O)C(C)(C)NC(=O)[C@@H](N)Cc1c[nH]cn1)[C@@H](C)O)C(C)C)C(=O)N[C@@H](C)C(=O)NC(C)(Cc1ccccc1)C(=O)N[C@H](C(=O)N[C@H](C(=O)NC(C)(CCCCN)C(=O)NCC(=O)NCC(N)=O)C(C)C)C(C)C` (stereo partly drawn) [SEQ ID NO: 4, Free-H-[AIB]-EGS-[αMePhe]-TSDV-[αMeSer]-S-[αMePhe]-LEGEAAK[(PEG2)2-γE-Stearate]-EFIA-[αMePhe]-VV-[αMeLys]-GG-amide], the “Permeability (%)” value in the data set with Caco-2 cells (setting [2]) is reported as 0%; in the data set with Caco-2 cells (setting [3]), 14.3%.

As a reminder, the bioavailability is the share of a dose that reaches the circulation, judged against a reference dose that is usually intravenous. Low readings indicate little systemic uptake, high ones much systemic uptake. What is called AUC(0-t) is the area under the concentration-time curve up to a stated or last time point. A high value points to more exposure. One may read the Cmax as the highest concentration seen after dosing. Usually Tmax stands for the time at which the peak concentration occurs. Regarding `CCCCCCCCCCCC(=O)N[C@@H](CCC(=O)NCCOCCOCC(=O)NCCOCCOCC(=O)NCCCC[C@H](NC(=O)[C@H](C)NC(=O)[C@@H](NC(=O)[C@H](Cc1ccccc1)NC(=O)[C@H](CCC(=O)O)NC(=O)C(C)(CCCCN)NC(=O)[C@H](C)NC(=O)[C@H](C)NC(=O)[C@H](CCC(=O)O)NC(=O)CNC(=O)[C@H](CCC(=O)O)NC(=O)[C@H](CC(C)C)NC(=O)[C@H](Cc1ccc(O)cc1)NC(=O)[C@H](CCCCNC(=O)COCCOCCNC(=O)COCCOCCNC(=O)CC[C@H](NC(=O)CCCCCCCCCCC)C(=O)O)NC(=O)[C@H](CO)NC(=O)[C@@H](NC(=O)[C@H](CC(=O)O)NC(=O)[C@H](CO)NC(=O)[C@@H](NC(=O)C(C)(Cc1ccccc1)NC(=O)[C@H](CO)NC(=O)CNC(=O)[C@H](CCC(=O)O)NC(=O)C(C)(C)NC(=O)[C@@H](N)Cc1c[nH]cn1)[C@@H](C)O)C(C)C)[C@@H](C)CC)C(=O)N[C@H](C(=O)N[C@H](C(=O)N[C@@H](CCC(=O)O)C(=O)NCC(=O)NCC(N)=O)C(C)C)C(C)C)C(=O)O` (stereo partly drawn) [SEQ ID NO: 5, Free-H-[AIB]-EGS-[αMePhe]-TSDVSK[(PEG2)2-γE-Lauroyl]-YLEGEAA-[αMeLys]-EFIAK[(PEG2)2-γE-Lauroyl]-VVEGG-amide], the bioavailability in data set [1] (Beagle, po, IntelliCap, Distal small bowel, 0.81 mg/kg, 12 mg/mL peptide, 25 mg/mL Na CDC, 12.5 mg/mL PG, pH 8.0) came out at 0.3%; in data set [1] (Beagle, po, IntelliCap, Proximal colon, 0.85 mg/kg, 12 mg/mL peptide, 25 mg/mL Na CDC, 12.5 mg/mL PG, pH 8.0), 2.6%; in data set [1] (Beagle, po, IntelliCap, Proximal small bowel, 0.86 mg/kg, 12 mg/mL peptide, 25 mg/mL Na CDC, 12.5 mg/mL PG, pH 8.0), 0.5%; in data set [1] (beagle, sc, Subcutaneous, 0.03 mg/kg, 0.3 mg/mL peptide in 50 mM Tris, 150 mM Mannitol, 0.02% PS80, pH 8.0) it was 87%. Also, in data set [1] (setting [4]), the F is 100%. Also, the AUC(0-t) was 166 ng·h/mL in data set [1] (setting [5]); 1500 ng·h/mL in data set [1] (setting [6]); 297 ng·h/mL in data set [1] (setting [7]); 2000 ng·h/mL in data set [1] (setting [4]); 1770 ng·h/mL in data set [1] (setting [8]). The highest concentration (Cmax) in data set [1] (setting [5]) turned out to be 51 ng/mL; in data set [1] (setting [6]), 301 ng/mL; in data set [1] (setting [7]), 75 ng/mL; in data set [1] (setting [4]), 449 ng/mL; in data set [1] (setting [8]), 144 ng/mL. In addition, the Tmax came to 15 min in data set [1] (setting [5]); 15 min in data set [1] (setting [6]); 15 min in data set [1] (setting [7]); 15 min in data set [1] (setting [4]); 240 min in data set [1] (setting [8]). Also, the “Permeability (%)” value is on record as 3.2% in the data set on Caco-2 cells (setting [2]) and 10.4% in the data set on Caco-2 cells (setting [3]).

In the case of `CCCCCCCCCCCC(=O)N[C@@H](CCC(=O)NCCOCCOCC(=O)NCCOCCOCC(=O)NCCCC[C@H](NC(=O)[C@H](CC(=O)O)NC(=O)[C@H](CO)NC(=O)[C@@H](NC(=O)C(C)(Cc1ccccc1)NC(=O)[C@H](CO)NC(=O)CNC(=O)[C@H](CCC(=O)O)NC(=O)C(C)(C)NC(=O)[C@@H](N)Cc1c[nH]cn1)[C@@H](C)O)C(=O)N[C@@H](CO)C(=O)N[C@@H](CO)C(=O)N[C@@H](Cc1ccc(O)cc1)C(=O)N[C@@H](CC(C)C)C(=O)N[C@@H](CCC(=O)O)C(=O)NCC(=O)N[C@@H](CCC(=O)O)C(=O)N[C@@H](C)C(=O)N[C@@H](C)C(=O)NC(C)(CCCCN)C(=O)N[C@@H](CCC(=O)O)C(=O)N[C@@H](Cc1ccccc1)C(=O)N[C@H](C(=O)N[C@@H](CCCCNC(=O)COCCOCCNC(=O)COCCOCCNC(=O)CC[C@H](NC(=O)CCCCCCCCCCC)C(=O)O)C(=O)N[C@@H](Cc1c[nH]c2ccccc12)C(=O)N[C@H](C(=O)N[C@H](C(=O)N[C@@H](CCC(=O)O)C(=O)NCC(=O)NCC(N)=O)C(C)C)C(C)C)[C@@H](C)CC)C(=O)O` (stereo partly drawn) [SEQ ID NO: 8] (H-H[Aib]EGS[ξαMeF]TSDK([AEEA-AEEA-γGlu-Lauroyl])SSYLEGEAA[ξαMeK]EFIK([AEEA-AEEA-γGlu-Lauroyl])WVVEGG-NH2), the “Permeability (%)” value amounted to 1.7% with Caco-2 cells (setting [2]) and 11.6% in the data set with Caco-2 cells (setting [3]).

For the compound `CCCCCCCCCCCC(=O)N[C@@H](CCC(=O)NCCOCCOCC(=O)NCCOCCOCC(=O)NCCCC[C@H](NC(=O)[C@H](C)NC(=O)[C@@H](NC(=O)[C@H](Cc1ccccc1)NC(=O)[C@H](CCC(=O)O)NC(=O)C(C)(CCCCN)NC(=O)[C@H](C)NC(=O)[C@H](C)NC(=O)[C@H](CCC(=O)O)NC(=O)CNC(=O)[C@H](CCC(=O)O)NC(=O)[C@H](CCCCNC(=O)COCCOCCNC(=O)COCCOCCNC(=O)CC[C@H](NC(=O)CCCCCCCCCCC)C(=O)O)NC(=O)[C@H](Cc1ccc(O)cc1)NC(=O)[C@H](CO)NC(=O)C(C)(CO)NC(=O)[C@@H](NC(=O)[C@H](CC(=O)O)NC(=O)[C@H](CO)NC(=O)[C@@H](NC(=O)C(C)(Cc1ccccc1)NC(=O)[C@H](CO)NC(=O)CNC(=O)[C@H](CCC(=O)O)NC(=O)C(C)(C)NC(=O)[C@@H](N)Cc1c[nH]cn1)[C@@H](C)O)C(C)C)[C@@H](C)CC)C(=O)N[C@H](C(=O)N[C@H](C(=O)N[C@@H](CCC(=O)O)C(=O)NCC(=O)NCC(N)=O)C(C)C)C(C)C)C(=O)O` (stereo partly drawn) [SEQ ID NO: 9, Free-H-[AIB]-EGS-[αMePhe]-TSDV-[αMeSer]-SYK[(PEG2)2-γE-Lauroyl]-EGEAA-[αMeLys]-EFIAK[(PEG2)2-γE-Lauroyl]-VVEGG-amide] (H-H[Aib]EGS[ξαMeF]TSDV[ξαMeS]SYK([AEEA-AEEA-γGlu-Lauroyl])EGEAA[ξαMeK]EFIAK([AEEA-AEEA-γGlu-Lauroyl])VVEGG-NH2), the “Permeability (%)” value stood at 3.1% in the data set with Caco-2 cells (setting [2]) and 13.9% in the data set with Caco-2 cells (setting [3]).

Turning to “Free-H-[AIB]-EGS-[αMePhe]-TSDVSK[(PEG2)2-γE-Lauroyl]-YLEGEAA-[αMeLys]-EFIAWK[(PEG2)2-γE-Lauroyl]-VEGG-amide (H-H[Aib]EGS[αMeF]TSDVSK([PEG2′-PEG2′-γGlu-Lauroyl])YLEGEAA[αMeK]EFIAWK([PEG2′-PEG2′-γGlu-Lauroyl])VEGG-NH2) [SEQ ID NO: 7]”, the “Permeability (%)” value with Caco-2 cells (setting [2]) worked out at 2.1%; in the data set with Caco-2 cells (setting [3]), 10.3%.
